What was measured:
[1] = Chemical stability of tacrolimus in ethanol as a function of temperature; format: physicochemical; conditions: 200 mg/ml in ethanol, around day 30
Procedure: The degradant levels contained in solutions of tacrolimus dissolved in ethanol at a fixed concentration of 200 mg/ml were determined over time as a function of temperature. Samples were stored at the following temperatures: 35° C., 45° C., and 55° C.

[2] = Aerosol exposure study of tacrolimus in rats, blood and lung pharmacokinetics; format: in vivo, male Sprague-dawley rats; conditions: rat; for AUClast / Tmax: lung; for Cmax: 30 min aerosol exposure
Procedure: A total of 54 male Sprague-dawley rats of approximately 250 g body weight were exposed to aerosols of tacrolimus (in a propylene-glycol:ethanol mixture) generated by jet-nebulizer for 30 minutes. […] Estimated deposited doses for the 30 minute exposure (assuming 10% deposition efficiency) were 0.072 and 0.256 mg/kg for the “low” and “high” dose groups. Lung and blood samples were obtained for groups of animals (n=3/time point).

[3] = as above; format: in vivo, male Sprague-dawley rats; conditions: rat
[4] = Chemical stability of tacrolimus in ethanol as a function of concentration (HPLC); format: physicochemical; conditions: 55 °C, 26 days
Procedure: The chemical stability of tacrolimus in ethanol at different concentrations ranging from 100 to 400 mg/ml when stored at 55° C. was investigated.
Samples were analyzed using reverse phase HPLC with an acetonitrile-water gradient and UV detection. Samples were prepared in a non-aqueous medium, i.e., acetonitrile, to limit the interconversion of tautomers and to promote stability. Column temperature was set at 60° C. to further promote equilibrium between the cis-trans isomers. The gradient was set at 5% acetronitrile with a run time of 20 minutes. Acetic acid (0.002%) was added to mobile phase A (water). A solution of tacrolimus in 1:1 acetonitrile-water was incubated at 55° C. for 45 minutes to obtain an equilibrium mixture of the 3 tautomers so that retention times of each tautomer could be obtained.

[5] = Solubility of tacrolimus in ethanol and hydrofluoroalkanes; format: physicochemical
calcineurin = conditions: as a calcineurin inhibitor; Kino et al. 1987; cited from earlier work
[6] = Particle size of jet-nebulized tacrolimus aerosol; format: physicochemical; conditions: jet-nebulizer
[7] = male, Sprague-Dawley, inhaled or intranasal, blood, High Inhalation 0.256 mg/kg
[8] = male, Sprague-Dawley, inhaled or intranasal, blood, Low Inhalation 0.072 mg/kg
[9] = male, Sprague-Dawley, 0.4 mg/kg, blood, IV Bolus 0.400 mg/kg
[10] = male, Sprague-Dawley, 0.4 mg/kg, lung, IV Bolus 0.400 mg/kg

impurity level ([1]; stored at 35 °C): about 3%
impurity level ([1]; stored at 55 °C): about 11%
AUClast ([2]; High Inhalation 0.256 mg/kg): 22750 ng·h/g
AUClast ([2]; Low Inhalation 0.072 mg/kg): 19722 ng·h/g
Cmax [2, 7]: 149 ng/mL
AUC(0-t) [2, 7]: 194 ng·h/mL
Cmax [2, 8]: 40 ng/mL
AUC(0-t) [2, 8]: 121 ng·h/mL
half-life [2, 8]: 179 min
Tmax ([2]; male, Sprague-Dawley, inhaled or intranasal, High Inhalation 0.256 mg/kg): 4.98 min
Tmax ([2]; male, Sprague-Dawley, inhaled or intranasal, Low Inhalation 0.072 mg/kg): 4.98 min
AUClast ([3]; lung, IV Bolus 0.400 mg/kg): 334095 ng·h/g
AUC(0-t) [3, 9]: 179 ng·h/mL
Cmax [3, 9]: 78.2 ng/mL
Tmax [3, 9]: 4.98 min
half-life [3, 9]: 114 min
Cmax [3, 10]: 19100 ng/g
Tmax [3, 10]: 4.98 min
half-life [3, 10]: 1470 min
Tmax [3, 7]: 4.98 min
half-life [3, 7]: 104 min
Tmax [3, 8]: 4.98 min
Cmax ([3]; male, Sprague-Dawley, inhaled or intranasal, lung, High Inhalation 0.256 mg/kg, 30 min aerosol exposure): 18100 ng/g
half-life ([3]; male, Sprague-Dawley, inhaled or intranasal, lung, High Inhalation 0.256 mg/kg): 1400 min
Cmax ([3]; male, Sprague-Dawley, inhaled or intranasal, lung, Low Inhalation 0.072 mg/kg, 30 min aerosol exposure): 9960 ng/g
half-life ([3]; male, Sprague-Dawley, inhaled or intranasal, lung, Low Inhalation 0.072 mg/kg): 548 min
degradation of tacrolimus ([4]; 100 mg/ml in ethanol): approximately 7%
degradation of tacrolimus ([4]; 400 mg/ml in ethanol): less than 1%
solubility in ethanol ([5]; ethanol): readily soluble
solubility in hydrofluoroalkanes ([5]; hydrofluoroalkanes): essentially insoluble
MMAD (GSD) ([6]; 50 mg/ml solution in propylene-glycol:ethanol mixture): 2.53 (1.71) μm
MMAD (GSD) ([6]; 150 mg/ml solution in propylene-glycol:ethanol mixture): 2.56 (1.73) μm
Structure (SMILES): C=CC[C@@H]1/C=C(\C)C[C@H](C)C[C@H](OC)[C@H]2O[C@@](O)(C(=O)C(=O)N3CCCC[C@H]3C(=O)O[C@H](/C(C)=C/[C@@H]3CC[C@@H](O)[C@H](OC)C3)[C@H](C)[C@@H](O)CC1=O)[C@H](C)C[C@@H]2OC [tacrolimus, 17-allyl-1,14-dihydroxy-12-[2-(4-hydroxy-3-methoxycyclohexyl)-1-methylvinyl]-23,25-dimethyoxy-13,19,21,27-tetramethyl-11,28-dioxa-4-azatricyclo-[22.3.1.0^4,9]octacos-18-ene-2,3,10,16-tetraone]
potency relative to cyclosporine (calcineurin): up to one hundred times more potent
